Results reported in PMC3165048 (Chemistry & biology, 2010).

System: M. tuberculosis knock-in strains overexpressing MtMetAP1a or MtMetAP1c, wild-type and control strains
Type: cell-based, M. tuberculosis CDC1551

O=C1C(Cl)=C(Cl)C(=O)c2ccccc21 [Compound 4, 2,3-dichloro-1,4-naphthoquinone]
Growth of MtMetAP1a knock-in strain in the presence of inhibitor: gained resistance
Growth of MtMetAP1c knock-in strain in the presence of inhibitor: gained resistance
Growth of wild-type and control M. tuberculosis strains in the presence of inhibitor: inhibited
